What all share (assay type): cell-based
Assay [1] has as its target T1, CFTR ΔF508 mutant (Homo sapiens, UniProt P13569, DEL508-508).
T1 construct: expressed in transfected cells; host or cells: CFBE41o- (adenoviral transduction)
As to the kind of experiment: YFP-halide influx assay for the CFTR-ΔF508 mutation, PBS buffer (96 well). As to conditions: CFBE41o- cells, forskolin 10.67 μM. In outline: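 CFBE41o- cells were adenovirally transduced with CFTR ΔF508 and YFP H148Q/I152L, then incubated 24 h at 27 °C or with a CFTR modulator at 37 °C. I⁻-induced fluorescence quenching was recorded over 7 s after injection; response expressed as 1−F/F0, with EC50 from concentration plots.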

The target in assay [2] is T1, CFTR ΔF508 mutant. As to the kind of experiment: YFP-halide influx assay for the CFTR-ΔF508 mutation, gluconate buffer. To be noted: CFBE41o- cells, forskolin 10.67 μM. The procedure, abridged:
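Channel opening is read as the fall in YFP fluorescence over 7 s following iodide injection, expressed as 1-F/F0 and plotted versus compound concentration to derive EC50. Cells used were CFBE41o- expressing adenoviral ΔF508 CFTR and halide-sensitive YFP, rescued by 24 h at 27 °C or 24 h modulator treatment at 37 °C.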

In another assay the target is T2, CFTR G551D mutant (Homo sapiens, UniProt P13569, G551D).
T2 construct: expressed in transfected cells; host or cells: HEK293 (reverse transfection with plasmid)
T2 sequence (P13569 whole entry G551D): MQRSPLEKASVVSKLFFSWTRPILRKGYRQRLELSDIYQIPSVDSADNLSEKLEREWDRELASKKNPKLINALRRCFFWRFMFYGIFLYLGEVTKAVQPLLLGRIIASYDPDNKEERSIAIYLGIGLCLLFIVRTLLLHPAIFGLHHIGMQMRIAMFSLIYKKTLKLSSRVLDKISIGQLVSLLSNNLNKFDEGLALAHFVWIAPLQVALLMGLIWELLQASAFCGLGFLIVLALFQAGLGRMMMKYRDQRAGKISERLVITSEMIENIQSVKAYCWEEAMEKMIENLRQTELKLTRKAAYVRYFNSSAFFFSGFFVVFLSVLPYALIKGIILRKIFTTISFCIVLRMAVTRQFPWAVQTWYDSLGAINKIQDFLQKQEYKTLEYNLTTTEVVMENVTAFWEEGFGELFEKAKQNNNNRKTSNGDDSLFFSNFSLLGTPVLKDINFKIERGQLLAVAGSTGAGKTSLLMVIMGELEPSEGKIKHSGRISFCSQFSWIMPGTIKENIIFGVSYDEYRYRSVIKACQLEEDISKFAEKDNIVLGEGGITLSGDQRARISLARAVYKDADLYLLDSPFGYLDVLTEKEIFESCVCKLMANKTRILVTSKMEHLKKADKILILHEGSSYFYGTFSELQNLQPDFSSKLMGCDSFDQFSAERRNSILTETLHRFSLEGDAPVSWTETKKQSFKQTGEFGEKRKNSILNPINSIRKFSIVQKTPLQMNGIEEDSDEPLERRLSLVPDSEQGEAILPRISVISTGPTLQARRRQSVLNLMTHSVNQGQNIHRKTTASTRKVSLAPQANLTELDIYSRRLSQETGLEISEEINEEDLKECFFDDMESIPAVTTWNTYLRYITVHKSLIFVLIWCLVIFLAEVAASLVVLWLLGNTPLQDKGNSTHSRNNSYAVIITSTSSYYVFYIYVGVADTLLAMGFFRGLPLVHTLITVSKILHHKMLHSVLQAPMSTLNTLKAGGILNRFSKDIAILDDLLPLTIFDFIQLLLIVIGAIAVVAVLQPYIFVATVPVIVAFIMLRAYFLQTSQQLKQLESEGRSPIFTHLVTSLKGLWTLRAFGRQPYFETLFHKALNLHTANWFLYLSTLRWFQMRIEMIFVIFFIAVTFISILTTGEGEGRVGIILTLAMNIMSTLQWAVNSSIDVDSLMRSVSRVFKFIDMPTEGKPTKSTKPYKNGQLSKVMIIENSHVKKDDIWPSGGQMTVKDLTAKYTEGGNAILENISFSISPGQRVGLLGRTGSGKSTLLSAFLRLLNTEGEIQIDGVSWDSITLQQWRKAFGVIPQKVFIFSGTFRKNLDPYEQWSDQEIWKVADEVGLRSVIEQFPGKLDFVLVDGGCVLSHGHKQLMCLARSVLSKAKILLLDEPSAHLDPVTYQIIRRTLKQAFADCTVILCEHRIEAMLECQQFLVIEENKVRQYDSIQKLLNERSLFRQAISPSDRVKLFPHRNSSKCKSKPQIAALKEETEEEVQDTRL
Nature of the assay: YFP-halide influx assay for the CFTR-G551D mutation. As to conditions: HEK293 cells, forskolin 10.67 μM. In outline:
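Channel opening potentiation measured as 1−F/F0, where F is YFP fluorescence 7 s after iodide injection and F0 before; EC50 taken from concentration plot. Cells: HEK293 transiently expressing CFTR G551D plus halide-sensitive YFP (H148Q, I152L, F47L), 24 h at 37 °C, 5% CO2.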

Assay [3] deals with T1, CFTR ΔF508 mutant. Nature of the assay: YFP-halide influx assay for the CFTR-ΔF508 mutation (384 well, FDSS/μCell). To be noted: CFBE41o- cells, CFTR-ΔF508, 1×D-PBS, fluorescence after 36 seconds. The procedure, abridged: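 Potentiator read-out as 1−F/F0, F taken 36 s after iodide addition, EC50 fitted against compound concentration. Cells: CFBE41o- expressing ΔF508 CFTR plus halide-sensitive YFP via adenovirus, rescued by 27 °C for 24 h or 24 h modulator at 37 °C.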

Structures are written as SMILES.

What is called EC50 is the concentration that produces a half-maximal response. A high value points to weaker potency.

T1 sequence (P13569 with tags, fused parts or gaps DEL508-508): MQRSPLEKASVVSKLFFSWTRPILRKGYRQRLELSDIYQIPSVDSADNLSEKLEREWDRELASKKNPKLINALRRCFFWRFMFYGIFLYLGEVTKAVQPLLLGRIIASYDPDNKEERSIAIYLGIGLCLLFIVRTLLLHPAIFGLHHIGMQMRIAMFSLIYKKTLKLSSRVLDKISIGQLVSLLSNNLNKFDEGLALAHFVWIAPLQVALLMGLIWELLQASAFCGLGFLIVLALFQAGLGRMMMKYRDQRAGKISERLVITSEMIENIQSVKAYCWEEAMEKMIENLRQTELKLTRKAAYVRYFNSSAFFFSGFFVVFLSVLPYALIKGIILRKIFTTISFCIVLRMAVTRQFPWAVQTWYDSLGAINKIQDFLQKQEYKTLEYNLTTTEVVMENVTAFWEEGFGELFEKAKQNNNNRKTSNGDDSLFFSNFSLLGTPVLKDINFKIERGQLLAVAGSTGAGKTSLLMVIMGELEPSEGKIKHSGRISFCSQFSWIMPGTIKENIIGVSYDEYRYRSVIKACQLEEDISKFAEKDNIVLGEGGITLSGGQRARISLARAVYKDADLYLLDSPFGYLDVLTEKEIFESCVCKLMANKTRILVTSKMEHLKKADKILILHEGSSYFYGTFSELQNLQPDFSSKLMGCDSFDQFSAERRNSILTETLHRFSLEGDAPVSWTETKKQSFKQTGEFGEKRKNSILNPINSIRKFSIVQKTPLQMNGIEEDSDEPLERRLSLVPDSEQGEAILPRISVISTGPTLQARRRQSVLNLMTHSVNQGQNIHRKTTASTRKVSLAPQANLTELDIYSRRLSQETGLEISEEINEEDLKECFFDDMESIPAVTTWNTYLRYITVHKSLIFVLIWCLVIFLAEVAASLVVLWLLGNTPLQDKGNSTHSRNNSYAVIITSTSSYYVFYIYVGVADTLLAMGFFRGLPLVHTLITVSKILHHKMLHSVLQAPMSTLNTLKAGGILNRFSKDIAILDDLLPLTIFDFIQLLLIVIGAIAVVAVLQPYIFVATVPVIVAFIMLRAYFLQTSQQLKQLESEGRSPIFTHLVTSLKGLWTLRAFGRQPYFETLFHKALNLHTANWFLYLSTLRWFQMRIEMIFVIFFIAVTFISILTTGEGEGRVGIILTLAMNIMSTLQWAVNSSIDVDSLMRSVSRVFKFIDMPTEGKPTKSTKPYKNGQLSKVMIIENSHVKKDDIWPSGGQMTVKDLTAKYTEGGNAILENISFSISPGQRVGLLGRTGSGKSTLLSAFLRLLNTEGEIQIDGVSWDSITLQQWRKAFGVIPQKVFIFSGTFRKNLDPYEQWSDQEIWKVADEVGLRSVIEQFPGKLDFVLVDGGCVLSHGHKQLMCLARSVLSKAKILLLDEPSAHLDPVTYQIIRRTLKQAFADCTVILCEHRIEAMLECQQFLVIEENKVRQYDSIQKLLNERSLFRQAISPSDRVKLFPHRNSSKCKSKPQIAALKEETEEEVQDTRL

`NC(=O)c1cc(S(=O)(=O)N2CCOCC2)sc1NC(=O)c1ccccc1C(F)(F)F` [Compound 78, 5-(morpholinosulfonyl)-2-(2-(trifluoromethyl)benzamido)thiophene-3-carboxamide]: the EC50 at CFTR ΔF508 mutant [1] amounted to 0.22 µM; at CFTR ΔF508 mutant [2], 0.401 µM; at CFTR G551D mutant, 3.07 µM; at CFTR ΔF508 mutant [3], 0.146 µM.
The matching figures for `CC(C)(C)C(=O)Nc1sc(S(=O)(=O)c2cccc(F)c2)cc1C(N)=O` [Compound 122, 5-(3-fluorophenylsulfonyl)-2-pivalamidothiophene-3-carboxamide]: 0.114 µM, 0.293 µM, 5.68 µM and 0.0684 µM.
As for `NC(=O)c1cc(S(=O)(=O)N2CC=C(C(F)(F)F)CC2)sc1NC(=O)c1ccccc1F` [Compound 158, 2-(2-fluorobenzamido)-5-(4-(trifluoromethyl)-5,6-dihydropyridin-1(2H)-ylsulfonyl)thiophene-3-carboxamide], the EC50 turned out to be 0.0355 µM at CFTR ΔF508 mutant [1], 0.0505 µM on CFTR ΔF508 mutant [2], 1.87 µM at CFTR G551D mutant and 0.0795 µM on CFTR ΔF508 mutant [3].
On the same counts, the results for `COc1ccc(CN(C)S(=O)(=O)c2cc(C(N)=O)c(NC(=O)c3cc[nH]n3)s2)cc1F` [Compound 160, N-(3-carbamoyl-5-(N-(3-fluoro-4-methoxybenzyl)-N-methylsulfamoyl)thiophen-2-yl)-1H-pyrazole-3-carboxamide] are 0.0387 µM, 0.0484 µM, 0.272 µM and 0.21 µM.
The matching figures for `COc1ccc(CN(C)S(=O)(=O)c2cc(C(N)=O)c(NC(=O)c3cc[nH]n3)s2)cc1` [Compound 171, N-(3-carbamoyl-5-(N-(4-methoxybenzyl)-N-methylsulfamoyl)thiophen-2-yl)-1H-pyrazole-3-carboxamide]: 0.0375 µM, 0.104 µM, 0.756 µM and 0.0814 µM.
The matching figures for `CN(Cc1ccc(C(F)(F)F)cc1)S(=O)(=O)c1cc(C(N)=O)c(NC(=O)c2cc[nH]n2)s1` [Compound 175, N-(3-carbamoyl-5-(N-methyl-N-(4-(trifluoromethyl)benzyl)sulfamoyl)thiophen-2-yl)-1H-pyrazole-3-carboxamide]: 0.0617 µM, 0.106 µM, 0.527 µM and 0.0968 µM.
As for `CC(C)c1ccccc1S(=O)(=O)c1cc(C(N)=O)c(NC(=O)c2ccccc2F)s1` [Compound 179, 2-(2-fluorobenzamido)-5-(2-isopropylphenylsulfonyl) thiophene-3-carboxamide], the EC50 amounted to 0.0312 µM on CFTR ΔF508 mutant [1], 0.0222 µM at CFTR ΔF508 mutant [2], 0.332 µM at CFTR G551D mutant and 0.0849 µM on CFTR ΔF508 mutant [3].
For `CC1(C)CN(S(=O)(=O)c2cc(C(N)=O)c(NC(=O)c3ccccc3F)s2)C1` [Compound 183, 5-(3,3-dimethylazetidin-1-ylsulfonyl)-2-(2-fluorobenzamido)thiophene-3-carboxamide], the EC50 on CFTR ΔF508 mutant [1] was 0.0257 µM; at CFTR ΔF508 mutant [2], 0.153 µM; at CFTR G551D mutant it was 0.526 µM; at CFTR ΔF508 mutant [3], 0.0127 µM.
`CN(CC(C)(C)C)S(=O)(=O)c1cc(C(N)=O)c(NC(=O)c2cc[nH]n2)s1` [Compound 192, N-(3-carbamoyl-5-(N-methyl-N-neopentylsulfamoyl)thiophen-2-yl)-1H-pyrazole-3-carboxamide]: the EC50 on CFTR ΔF508 mutant [1] was found to be 0.0334 µM; on CFTR ΔF508 mutant [2], 0.0606 µM; on CFTR G551D mutant it was 0.298 µM; at CFTR ΔF508 mutant [3], 0.0207 µM.
On to `CN(CCC(F)(F)F)S(=O)(=O)c1cc(C(N)=O)c(NC(=O)c2cc[nH]n2)s1` [Compound 194, N-(3-carbamoyl-5-(N-methyl-N-(3,3,3-trifluoropropyl)sulfamoyl)thiophen-2-yl)-1H-pyrazole-3-carboxamide], for which the concentration for a half-maximal effect (EC50) on CFTR ΔF508 mutant [1] was determined as 0.0383 µM; on CFTR ΔF508 mutant [2], 0.154 µM; at CFTR G551D mutant it was 0.185 µM; at CFTR ΔF508 mutant [3] it was 0.0207 µM.
On the same counts, the results for `CC1(C)CN(S(=O)(=O)c2cc(C(N)=O)c(NC(=O)c3cc[nH]n3)s2)C1` [Compound 206, N-(3-carbamoyl-5-(3,3-dimethylazetidin-1-ylsulfonyl)thiophen-2-yl)-1H-pyrazole-3-carboxamide] are 0.0314 µM, 0.0726 µM, 0.134 µM and 0.0069 µM.
The matching figures for `CN(Cc1ccncc1)S(=O)(=O)c1cc(C(N)=O)c(NC(=O)c2cc[nH]n2)s1` [Compound 207, N-(3-carbamoyl-5-(N-methyl-N-(pyridin-4-ylmethyl)sulfamoyl)thiophen-2-yl)-1H-pyrazole-3-carboxamide]: 0.125 µM, 0.317 µM, 0.442 µM and 0.0481 µM.
On to `CN(C1CC1)S(=O)(=O)c1cc(C(N)=O)c(NC(=O)c2cc[nH]n2)s1` [Compound 209, N-(3-carbamoyl-5-(N-cyclopropyl-N-methylsulfamoyl)thiophen-2-yl)-1H-pyrazole-3-carboxamide], for which the EC50 on CFTR ΔF508 mutant [1] amounted to 0.0345 µM; at CFTR ΔF508 mutant [2] it was 0.0739 µM; at CFTR G551D mutant, 0.314 µM; at CFTR ΔF508 mutant [3] it was 0.006 µM.
With `NC(=O)c1cc(S(=O)(=O)N2CCC(F)(F)CC2)sc1NC(=O)C1(O)CCC1` [Compound 213, 5-(4,4-difluoropiperidin-1-ylsulfonyl)-2-(1-hydroxycyclobutanecarboxamido) thiophene-3-carboxamide], the EC50 on CFTR ΔF508 mutant [1] stood at 0.118 µM; on CFTR ΔF508 mutant [2], 0.0873 µM; on CFTR G551D mutant, 0.541 µM; at CFTR ΔF508 mutant [3], 0.0528 µM.
Regarding `NC(=O)c1cc(S(=O)(=O)N2CCC(F)(F)CC2)sc1NC(=O)c1c(O)cc(F)cc1F` [Compound 214, 2-(2,4-difluoro-6-hydroxybenzamido)-5-(4,4-difluoropiperidin-1-ylsulfonyl) thiophene-3-carboxamide], the concentration giving a half-maximal response (EC50) on CFTR ΔF508 mutant [1] is 0.0372 µM; at CFTR ΔF508 mutant [2] it was 0.117 µM; on CFTR ΔF508 mutant [3] it was 0.0258 µM.
As to `CN(CC1CC1)S(=O)(=O)c1cc(C(N)=O)c(NC(=O)c2ccccc2F)s1` [Compound 218, 5-(N-(cyclopropylmethyl)-N-methylsulfamoyl)-2-(2-fluorobenzamido) thiophene-3-carboxamide], the EC50 was 0.0727 µM at CFTR ΔF508 mutant [1], 0.196 µM at CFTR ΔF508 mutant [2] and 0.41 µM at CFTR G551D mutant.
As to `CC(C)S(=O)(=O)c1cc(C(N)=O)c(NC(=O)C(C)(C)O)s1` [Compound 220, 2-(2-hydroxy-2-methylpropanamido)-5-(isopropylsulfonyl) thiophene-3-carboxamide], the EC50 was 2.31 µM at CFTR ΔF508 mutant [1] and greater than 1 µM at CFTR ΔF508 mutant [2].
`CC(C)(O)C(=O)Nc1sc(S(=O)(=O)c2ccc(F)cc2)cc1C(N)=O` [Compound 221, 5-(4-fluorophenylsulfonyl)-2-(2-hydroxy-2-methylpropanamido) thiophene-3-carboxamide]: the concentration giving a half-maximal response (EC50) on CFTR ΔF508 mutant [1] came out at 0.0494 µM; at CFTR ΔF508 mutant [2], 0.11 µM; at CFTR G551D mutant it was 1.16 µM; at CFTR ΔF508 mutant [3] it was 0.0261 µM.
With `Cc1cc(F)ccc1S(=O)(=O)c1cc(C(N)=O)c(NC(=O)C2(O)CC2)s1` [Compound 222, 5-(4-fluoro-2-methylphenylsulfonyl)-2-(1-hydroxycyclopropanecarboxamido) thiophene-3-carboxamide], the EC50 at CFTR ΔF508 mutant [1] was 0.0261 µM; at CFTR ΔF508 mutant [2] it was 0.0229 µM; at CFTR G551D mutant, 0.583 µM; on CFTR ΔF508 mutant [3], 0.0332 µM.
As for `NC(=O)c1cc(S(=O)(=O)c2ccc(F)cc2)sc1NC(=O)c1ccccc1O` [Compound 223, 5-(4-fluorophenylsulfonyl)-2-(2-hydroxybenzamido) thiophene-3-carboxamide], the half-maximal effective concentration (EC50) at CFTR ΔF508 mutant [1] worked out at 0.0318 µM; at CFTR ΔF508 mutant [2] it was 0.0379 µM; at CFTR G551D mutant it was 0.327 µM; at CFTR ΔF508 mutant [3], 0.0621 µM.
On the same counts, the results for `NC(=O)c1cc(S(=O)(=O)c2ccc(F)cc2)sc1NC(=O)C1(O)CC1` [Compound 224, 5-(4-fluorophenylsulfonyl)-2-(1-hydroxycyclopropanecarboxamido) thiophene-3-carboxamide] are 0.0541 µM, 0.103 µM, 0.511 µM and 0.035 µM.
On the same counts, the results for `NC(=O)c1cc(S(=O)(=O)c2ccc(F)cc2)sc1NC(=O)C1(O)CCC1` [Compound 226, 5-(4-fluorophenylsulfonyl)-2-(1-hydroxycyclobutanecarboxamido) thiophene-3-carboxamide] are 0.0369 µM, 0.0422 µM, 0.54 µM and 0.0338 µM.

Source of the values: patent publication US9382254B2, “Compounds and pharmaceutical compositions thereof for the treatment of cystic fibrosis” (Galapagos NV, priority 2013, dated 2016).
